Columns and labels:
Assay type in all cases: cell-based
EGFR = EGFR kinase inhibitor treatment, with or without EGF: Kaiso expression levels and nuclear staining
Experimental: Next, steps were taken to determine if EGFR signaling was involved in increasing Kaiso levels and/or cytoplasmic to nuclear trans-localization of Kaiso. All three cell lines were treated with EGF (10 ng/ml) over increasing time intervals of 30 minutes, 1 hour, and 24 hours. […] To determine the specificity of EGFR activity on Kaiso expression levels, an EGFR specific kinase inhibitor, PD153035, was also utilized in the presence or absence of EGF treatment.

Kaiso [1] = assay: EGF treatment: Kaiso mRNA and protein levels by real-time RT-PCR and immunoblot
Experimental: Unless otherwise herein described, growth factors, such as recombinant human epidermal growth factor (“EGF”), were obtained commercially and was added to serum free media of DMEM and T-media with antibiotics.
Since EGFR over-expressing DU-145WT cells express higher levels of Kaiso than the original DU-145 cells, experiments were further conducted to determine if EGFR signaling would have a direct effect on Kaiso localization and/or expression in prostate cancer cells. As an initial experiment, a dose dependent treatment of EGF consisting of 10, 50 and 100 ng/ml was performed.

Kaiso [2] = assay: EGF treatment: Kaiso nuclear localization by immunofluorescence and subcellular fractionation; settings: EGF 10 ng/ml; from 30 minutes to 24 hour; immunofluorescence; DU-145, DU-145WT, PC-3
Experimental: Unless otherwise set forth herein, immunofluorescence studies comprised plating cells on a 4-chamber slide with 20000 cells. After treatment, they were then washed with PBS, fixed for 30 minutes with cold methanol at room temperature, incubated at room temperature with Lysis Buffer containing 0.1 M Tris, 0.15M NaCl, 0.01 M EGTA, 1% Triton and 1 mM PMSF, blocked for 30 mins in 5% BSA dissolved in PBS, treated with primary antibody (1:100) overnight in the cold room. Cells were stained for p120^ctn and Kaiso.
Next, steps were taken to determine if EGFR signaling was involved in increasing Kaiso levels and/or cytoplasmic to nuclear trans-localization of Kaiso. All three cell lines were treated with EGF (10 ng/ml) over increasing time intervals of 30 minutes, 1 hour, and 24 hours. […] A key finding within DU-145 cells that lack nuclear Kaiso expression was the observation of a predominant Kaiso nuclear staining. […] To determine the specificity of EGFR activity on Kaiso expression levels, an EGFR specific kinase inhibitor, PD153035, was also utilized in the presence or absence of EGF treatment.

p120^ctn = assay: EGF stimulation: p120ctn tyrosine residues Y228, Y96, Y291; settings: after 24 hours, DU-145 and DU-145WT
Experimental: Previous reports have observed that p120^ctn has a specific kinase activity for EGFR on tyrosine residue Y228. Additionally, p120^ctn is a known binding partner for Kaiso. Therefore, experiments were conducted determine whether this was apparent in prostate cancer cell lines as well. Given that p120^ctn has multiple tyrosine residues, including Y228, Y96, Y291, located within the regulator domain, the effect of EGF stimulation on each of these residues was studied. […] It was observed by immunofluorescence that Y228 expression remained cytosolic after 24 hours of EGF treatment.

Molecule	Kaiso expression levels (EGFR; 500 nM)	nuclear Kaiso staining (EGFR; DU-145 and PC-3 cells)	EGF induced increases in Kaiso levels (EGFR; pre-treatment before EGF, DU-145 and PC-3 cells)	increase in Kaiso mRNA and protein levels (Kaiso [1]; EGF 10 ng/ml (lowest of 10, 50, 100 ng/ml), real-time RT-PCR and immunoblot)	Kaiso increases (Kaiso [1]; EGF 10 ng/ml, 24 hour period, EGFR over-expressing DU145WT cells)	Kaiso increases at RNA and protein levels (Kaiso [1]; EGF 10 ng/ml, over 24 hour period, DU-145 and PC-3 cells)	nuclear accumulation of Kaiso (Kaiso [2])	expression of p120ctn Y228 (versus Y96 and Y291) (p120^ctn)
COc1cc2ncnc(Nc3cccc(Br)c3)c2cc1OC [PD153035]	significantly reduced	lack of nuclear Kaiso staining	completely blocked					
EGF: recombinant human epidermal growth factor, obtained commercially				At least a two-fold increase	4 fold	incremental Kaiso increases	Visible nuclear accumulation of Kaiso	induced the specific increased expression of Y228
